Results: patent publication US20240208992A1, “MACROCYCLES AS CFTR MODULATORS” (Idorsia Pharmaceuticals Ltd, priority 2021, published 2024)

Target: human F508del-CFTR (Homo sapiens, UniProt P13569, DEL508-508)
Test: F508del-CFTR cell surface expression (corrector activity), DiscoveRx ß-galactosidase complementation chemiluminescence assay in recombinant U2OS cell line;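 note: U2OS cells co-expressing ProLink-tagged F508del-CFTR and a membrane-anchored enzyme acceptor, where more surface CFTR restores β-galactosidase activity measured by chemiluminescence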
Conditions: for EC50: EC50, F508del-CFTR cell surface expression, U2OS cells, 16h compound incubation, geomean values; for Emax: U2OS, in relation to Emax of corrector lumacaftor (=100%), arithmetic mean values

Sequence of human F508del-CFTR (P13569 with tags, fused parts or gaps DEL508-508): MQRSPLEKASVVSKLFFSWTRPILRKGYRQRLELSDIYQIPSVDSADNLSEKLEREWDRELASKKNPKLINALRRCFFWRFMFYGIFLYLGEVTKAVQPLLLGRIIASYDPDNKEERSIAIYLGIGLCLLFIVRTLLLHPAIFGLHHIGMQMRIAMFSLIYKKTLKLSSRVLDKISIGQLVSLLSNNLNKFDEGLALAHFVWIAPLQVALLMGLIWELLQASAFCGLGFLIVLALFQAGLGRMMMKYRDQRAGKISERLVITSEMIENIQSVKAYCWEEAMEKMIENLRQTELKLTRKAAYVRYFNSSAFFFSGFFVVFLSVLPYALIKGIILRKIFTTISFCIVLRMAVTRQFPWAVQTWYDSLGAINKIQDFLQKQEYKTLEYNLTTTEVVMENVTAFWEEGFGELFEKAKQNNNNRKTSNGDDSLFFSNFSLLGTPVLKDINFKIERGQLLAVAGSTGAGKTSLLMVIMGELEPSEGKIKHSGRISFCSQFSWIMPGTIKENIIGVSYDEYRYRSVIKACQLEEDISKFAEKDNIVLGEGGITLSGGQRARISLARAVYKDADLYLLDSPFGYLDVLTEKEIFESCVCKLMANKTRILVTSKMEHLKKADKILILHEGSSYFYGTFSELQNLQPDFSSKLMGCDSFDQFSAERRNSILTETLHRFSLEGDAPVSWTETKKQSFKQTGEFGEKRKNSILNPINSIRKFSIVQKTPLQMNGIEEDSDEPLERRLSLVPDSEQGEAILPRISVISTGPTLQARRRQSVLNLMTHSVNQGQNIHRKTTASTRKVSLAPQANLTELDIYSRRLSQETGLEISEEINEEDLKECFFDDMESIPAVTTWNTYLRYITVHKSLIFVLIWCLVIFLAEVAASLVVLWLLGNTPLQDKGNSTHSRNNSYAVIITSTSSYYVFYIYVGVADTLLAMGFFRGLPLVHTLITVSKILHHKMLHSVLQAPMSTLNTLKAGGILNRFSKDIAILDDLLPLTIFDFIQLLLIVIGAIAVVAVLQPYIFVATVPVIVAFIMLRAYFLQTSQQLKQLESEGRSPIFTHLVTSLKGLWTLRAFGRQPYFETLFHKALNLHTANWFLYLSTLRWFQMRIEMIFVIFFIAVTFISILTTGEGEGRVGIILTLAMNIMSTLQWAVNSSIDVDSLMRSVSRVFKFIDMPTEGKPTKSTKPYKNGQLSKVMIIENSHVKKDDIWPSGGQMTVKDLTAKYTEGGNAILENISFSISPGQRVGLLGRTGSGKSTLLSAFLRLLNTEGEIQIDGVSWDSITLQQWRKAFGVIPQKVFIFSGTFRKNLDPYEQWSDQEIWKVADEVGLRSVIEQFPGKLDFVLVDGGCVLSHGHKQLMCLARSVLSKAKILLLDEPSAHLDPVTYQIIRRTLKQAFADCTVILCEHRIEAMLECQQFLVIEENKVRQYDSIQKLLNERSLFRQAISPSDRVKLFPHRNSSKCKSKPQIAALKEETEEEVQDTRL

Row | EC50 | Emax | Structure (SMILES)
1 | 875 nM | 359% | COc1nc(C)cc2c1C(=O)N[C@H](C(=O)NCCc1cc(C)no1)CC(=O)N(C)[C@@H](CC(C)C)C(=O)N(C)[C@H](CC(F)F)C(=O)N[C@H](Cc1ccccc1)CO2 [Example 775, (3R,6R,9S,13S)-3-benzyl-6-(2,2-difluoroethyl)-9-isobutyl-16-methoxy-7,10,18-trimethyl-N-(2-(3-methylisoxazol-5-yl)ethyl)-5,8,11,15-tetraoxo-2,3,4,5,6,7,8,9,10,11,12,13,14,15-tetradecahydropyrido[3,4-p][1]oxa[4,7,10,14]tetraazacycloheptadecine-13-carboxamide]
2 | 325 nM | 360% | COc1cc(CCNC(=O)[C@@H]2CC(=O)N(C)[C@@H](CC(C)C)C(=O)N(C)[C@H](CC(F)(F)F)C(=O)N[C@H](Cc3ccccc3)COc3ccnc(OC)c3C(=O)N2)on1 [Example 776, (3R,6R,9S,13S)-3-benzyl-9-isobutyl-16-methoxy-N-(2-(3-methoxyisoxazol-5-yl)ethyl)-7,10-dimethyl-5,8,11,15-tetraoxo-6-(2,2,2-trifluoroethyl)-2,3,4,5,6,7,8,9,10,11,12,13,14,15-tetradecahydropyrido[3,4-p][1]oxa[4,7,10,14]tetraazacycloheptadecine-13-carboxamide]
3 | 875 nM | 216% | CC(C)C[C@H]1C(=O)N2CCCC[C@H]2C(=O)N[C@H](Cc2ccccc2)COc2ccc3ncc(F)cc3c2C(=O)N[C@H](C(=O)NCCc2cc(C3CC3)no2)CC(=O)N1C [Example 777, (9S,13S,19aS,22R)-22-benzyl-N-(2-(3-cyclopropylisoxazol-5-yl)ethyl)-5-fluoro-13-isobutyl-12-methyl-7,11,14,20-tetraoxo-7,8,9,10,11,12,13,14,17,18,19,19a,20,21,22,23-hexadecahydro-16H-pyrido[2′,1′:6,7][1]oxa[4,7,10,14]tetraazacycloheptadecino[16,17-f]quinoline-9-carboxamide]
4 | 141 nM | 302% | CC(C)C[C@H]1C(=O)N2CCCC[C@@H]2C(=O)N[C@H](Cc2ccccc2)COc2ccc3ncc(F)cc3c2C(=O)N[C@H](C(=O)NCCn2ncc(C3CC3)n2)CC(=O)N1C [Example 778, (9S,13S,19aR,22R)-22-benzyl-N-(2-(4-cyclopropyl-2H-1,2,3-triazol-2-yl)ethyl)-5-fluoro-13-isobutyl-12-methyl-7,11,14,20-tetraoxo-7,8,9,10,11,12,13,14,17,18,19,19a,20,21,22,23-hexadecahydro-16H-pyrido[2′,11:6,7][1]oxa[4,7,10,14]tetraazacycloheptadecino[16,17-f]quinoline-9-carboxamide]
5 | 811 nM | 213% | CC(C)C[C@H]1C(=O)N2CCCC[C@H]2C(=O)N[C@H](Cc2ccccc2)COc2ccc3ncc(F)cc3c2C(=O)N[C@H](C(=O)NCCn2ncc(C3CC3)n2)CC(=O)N1C [Example 779, (9S,13S,19aS,22R)-22-benzyl-N-(2-(4-cyclopropyl-2H-1,2,3-triazol-2-yl)ethyl)-5-fluoro-13-isobutyl-12-methyl-7,11,14,20-tetraoxo-7,8,9,10,11,12,13,14,17,18,19,19a,20,21,22,23-hexadecahydro-16H-pyrido[2′,11:6,7][1]oxa[4,7,10,14]tetraazacycloheptadecino[16,17-f]quinoline-9-carboxamide]
6 | 116 nM | 280% | CC(C)C[C@H]1C(=O)N2CCCC[C@@H]2C(=O)N[C@H](Cc2ccccc2)COc2ccc3ncc(F)cc3c2C(=O)N[C@H](C(=O)NCCc2nc(C3CC3)no2)CC(=O)N1C [Example 780, (9S,13S,19aR,22R)-22-benzyl-N-(2-(3-cyclopropyl-1,2,4-oxadiazol-5-yl)ethyl)-5-fluoro-13-isobutyl-12-methyl-7,11,14,20-tetraoxo-7,8,9,10,11,12,13,14,17,18,19,19a,20,21,22,23-hexadecahydro-16H-pyrido[2′,1′:6,7][1]oxa[4,7,10,14]tetraazacycloheptadecino[16,17-f]quinoline-9-carboxamide]
7 | 124 nM | 296% | CC(C)C[C@H]1C(=O)N2CCCC[C@@H]2C(=O)N[C@H](Cc2ccccc2)COc2ccc3ncc(F)cc3c2C(=O)N[C@H](C(=O)NCCc2cc(C3CC3)on2)CC(=O)N1C [Example 781, (9S,13S,19aR,22R)-22-benzyl-N-(2-(5-cyclopropylisoxazol-3-yl)ethyl)-5-fluoro-13-isobutyl-12-methyl-7,11,14,20-tetraoxo-7,8,9,10,11,12,13,14,17,18,19,19a,20,21,22,23-hexadecahydro-16H-pyrido[2′,1′:6,7][1]oxa[4,7,10,14]tetraazacycloheptadecino[16,17-f]quinoline-9-carboxamide]
8 | 889 nM | 410% | COc1cc(CCNC(=O)[C@@H]2CC(=O)N(C)[C@@H](CC(C)C)C(=O)N(C)[C@H](Cc3nc(-c4ccc(F)cn4)no3)C(=O)N[C@H](Cc3ccccc3)COc3ccnc(OC)c3C(=O)N2)on1 [Example 783, (3R,6R,9S,13S)-3-benzyl-6-((3-(5-fluoropyridin-2-yl)-1,2,4-oxadiazol-5-yl)methyl)-9-isobutyl-16-methoxy-N-(2-(3-methoxyisoxazol-5-yl)ethyl)-7,10-dimethyl-5,8,11,15-tetraoxo-2,3,4,5,6,7,8,9,10,11,12,13,14,15-tetradecahydropyrido[3,4-p][1]oxa[4,7,10,14]tetraazacycloheptadecine-13-carboxamide]
9 | 311 nM | 391% | CC[C@@H]1C(=O)N[C@H](Cc2ccccc2)COc2cc(C)nc(OC)c2C(=O)N[C@H](C(=O)NCCc2cc(OC)no2)CC(=O)N(C)[C@@H](CC(C)C)C(=O)N1C [Example 784, (3R,6R,9S,13S)-3-benzyl-6-ethyl-9-isobutyl-16-methoxy-N-(2-(3-methoxyisoxazol-5-yl)ethyl)-7,10,18-trimethyl-5,8,11,15-tetraoxo-2,3,4,5,6,7,8,9,10,11,12,13,14,15-tetradecahydropyrido[3,4-p][1]oxa[4,7,10,14]tetraazacycloheptadecine-13-carboxamide]
10 | 210 nM | 365% | COc1cc(CCNC(=O)[C@@H]2CC(=O)N(C)[C@@H](CC(C)C)C(=O)N(C)[C@H](CC(F)F)C(=O)N[C@H](Cc3ccccc3)COc3cc(C)nc(OC)c3C(=O)N2)on1 [Example 785, (3R,6R,9S,13S)-3-benzyl-6-(2,2-difluoroethyl)-9-isobutyl-16-methoxy-N-(2-(3-methoxyisoxazol-5-yl)ethyl)-7,10,18-trimethyl-5,8,11,15-tetraoxo-2,3,4,5,6,7,8,9,10,11,12,13,14,15-tetradecahydropyrido[3,4-p][1]oxa[4,7,10,14]tetraazacycloheptadecine-13-carboxamide]
11 | 156 nM | 337% | COc1cc(CCNC(=O)[C@@H]2CC(=O)N(C)[C@@H](CC(C)C)C(=O)N(C)[C@H](C)C(=O)N[C@H](Cc3ccccc3)COc3ccc4ncc(F)cc4c3C(=O)N2)on1 [Example 786, (3S,7S,10R,13R)-13-benzyl-20-fluoro-7-isobutyl-N-(2-(3-methoxyisoxazol-5-yl)ethyl)-6,9,10-trimethyl-1,5,8,11-tetraoxo-1,2,3,4,5,6,7,8,9,10,11,12,13,14-tetradecahydro-[1]oxa[4,7,10,14]tetraazacycloheptadecino[16,17-f]quinoline-3-carboxamide]
12 | 190 nM | 323% | CC(C)C[C@H]1C(=O)N(C)[C@H](C)C(=O)N[C@H](Cc2ccccc2)COc2ccc3ncc(F)cc3c2C(=O)N[C@H](C(=O)NCCn2ncc(C3CC3)n2)CC(=O)N1C [Example 787, (3S,7S,10R,13R)-13-benzyl-N-(2-(4-cyclopropyl-2H-1,2,3-triazol-2-yl)ethyl)-20-fluoro-7-isobutyl-6,9,10-trimethyl-1,5,8,11-tetraoxo-1,2,3,4,5,6,7,8,9,10,11,12,13,14-tetradecahydro-[1]oxa[4,7,10,14]tetraazacycloheptadecino[16,17-f]quinoline-3-carboxamide]
13 | 675 nM | 358% | COc1cc(CCNC(=O)[C@@H]2CC(=O)N(C)[C@@H](CC(C)C)C(=O)N(C)[C@H](C)C(=O)N[C@H](Cc3ccccc3)COc3ccc4nccn4c3C(=O)N2)on1 [Example 789, (3S,7S,10R,13R)-13-benzyl-7-isobutyl-N-(2-(3-methoxyisoxazol-5-yl)ethyl)-6,9,10-trimethyl-1,5,8,11-tetraoxo-1,2,3,4,5,6,7,8,9,10,11,12,13,14-tetradecahydroimidazo[1′,2′:1,6]pyrido[2,3-p][1]oxa[4,7,10,14]tetraazacycloheptadecine-3-carboxamide]

Row | Structure (SMILES) | EC50 | Emax
14 | COc1cccc2c1C(=O)N[C@H](C(=O)NCCc1noc(C3CC3)n1)CC(=O)N(C)[C@@H](CC(C)C)C(=O)N(C)[C@H](Cc1nc(-c3ccc(F)cn3)no1)C(=O)N[C@H](Cc1ccccc1)CO2 [Example 782, (3R,6R,9S,13S)-3-benzyl-N-(2-(5-cyclopropyl-1,2,4-oxadiazol-3-yl)ethyl)-6-((3-(5-fluoropyridin-2-yl)-1,2,4-oxadiazol-5-yl)methyl)-9-isobutyl-16-methoxy-7,10-dimethyl-5,8,11,15-tetraoxo-2,3,4,5,6,7,8,9,10,11,12,13,14,15-tetradecahydropyrido[3,4-p][1]oxa[4,7,10,14]tetraazacycloheptadecine-13-carboxamide] | 859 nM | 439%
15 | COc1cccc(CCNC(=O)[C@@H]2CC(=O)N(C)[C@@H](CC(C)C)C(=O)N(C)[C@H](C)C(=O)N[C@H](Cc3ccccc3)COc3ccc4nccn4c3C(=O)N2)c1 [Example 788, (3S,7S,10R,13R)-13-benzyl-7-isobutyl-N-(3-methoxyphenethyl)-6,9,10-trimethyl-1,5,8,11-tetraoxo-1,2,3,4,5,6,7,8,9,10,11,12,13,14-tetradecahydroimidazo[1′,2′:1,6]pyrido[2,3-p][1]oxa[4,7,10,14]tetraazacycloheptadecine-3-carboxamide] | 549 nM | 344%
